Reference: patent US20040019018A1, “Rigid pyrrolidone modulators of pkc” (priority 2003, published 2004)

What was measured:
soluble APPα (sAPPα) = experiment: Secretion of soluble APPα from human fibroblasts (Example 15); format: cell-based; details: 10-20 μM, 2 hours
Protocol: Human fibroblasts from Alzheimer's patients (AD, cell line AG06848) or age-matched controls (AC, cell line AG07141) were grown to near confluence in DMEM containing 10% fetal bovine serum. On the day of the experiments, cells were rinsed twice with DMEM with no serum and incubated with the same […] for 2 hours at 37° C., 5% CO2. Cells were incubated for 2 additional hours with different concentrations of the drugs or equal volume of DMSO vehicle as control. The medium was collected and centrifuged at 1000 rpm to remove cell debris. Proteins were precipitated by addition of equal volume of 20% ice-cold tricholoroacetic acid (TCA) and incubation on ice for 60 minutes. The protein pellets were washed with ice-cold acetone and centrifuged for 30 minutes at 20,000 g for 30 minutes and dried overnight. Pellets were dissolved in electrophoresis buffer and proteins corresponding to the same concentration of protein were separated by SDS-PAGE and transferred to PVDF membranes according to the manufacturer's instructions. After electrophoresis, the membranes were blocked with Blotto and incubated overnight with a monoclonal antibody 6E10 (Synetek) that recognizes the APPα. After incubation with the secondary antibody, alkaline phosphatase anti-mouse IgG (Jackson's Laboratories), the membranes were developed using an alkaline phosphatase kit (BioRad) as per the manufacturer's instructions.

sAPP α = experiment: Secreted APP from human fibroblasts, Western blot with 6E10 (Example 14); format: cell-based; details: human fibroblasts (AD patients)
Protocol: Human fibroblasts were grown to confluence as above for PKC translocation. On the day of the experiment, cells were rinsed twice with serum-free Dulbecco's modified Eagle's medium (DMEM) and incubated in the same medium for 2 hours. Cells were treated with the drugs above, or DMSO vehicle as a control, for 2 hours. The medium was collected and spun for 5 min in a clinical centrifuge to remove cell debris. Proteins in the cell medium were precipitated using 10% trichloroacetic acid (TCA). Precipitated proteins were dissolved in electrophoresis buffer, separated on 8% SDS-PAGE as described above. Secreted APP was detected by Western blotting using a specific monoclonal antibody, 6E10.

CCCCCCCCC#Cc1ccc2c(c1)C(C)(C(C)C)C1C(=O)NC(CO)C21 [Compound 1, (3S, 8R, 9S, 10S)-6-(dec-1′-ynyl)-3-hydroxymethyl-8-isopropyl-8-methyl-3,3a,8,8a-tetrahydro-2H-2-aza-cyclopenta[a]inden-1-one]
secretion of soluble APPα (sAPPα) (soluble APPα (sAPPα)): increased the secretion of soluble APPα (sAPPα) significantly | secretion of sAPP (sAPP α): increased the secretion of sAPP
